Source: US20190388389A1, “METHODS AND COMPOSITIONS OF CARNOSOL FOR INHIBITING UVB-INDUCED SKIN DAMAGE” (Ohio University, priority 2017, published 2019)

Key:
[1] = system: 6-4 photoproducts (6-4PP); assay: Quantitative measurement of 6-4 photoproducts after UVB; format: cell-based; details: with vs without carnosol
Excerpt: FIG. 5F: Quantitative measurement of 6-4 photoproducts (6-4PP), with and without UVB, and with and without carnosol. *p<0.05 versus corresponded control group
There are two major forms of DNA damage caused by UVB radiation: one is the direct DNA damage which forms CPD; the other is the oxidation-caused DNA damage, which causes the formation of 6-4 PP. In order to identify which form of DNA damage is protected by carnosol, a quantitative assay to identify the production of both DNA damage products after UVB radiation with or without carnosol treatment was performed.

NF-κB = assay: Western blot for S276 phosphorylation of NF-κB, HaCaT cells; format: cell-based, Human; details: 20 μM carnosol, 6 h post UVB
Protocol: (§1) FIGS. 7A-7F: Carnosol inhibited UVB-induced NF-κB activation. Cells were exposed to UVB radiation in the presence or absence of carnosol. Cells were lysed at indicated time point and protein levels were measured by western blot analysis. (FIG. 7A) Western blot for IκB protein level in HaCaT cells at 2, 4 h post UVB radiation at 1, 10 or 20 μM carnosol treatment. (FIG. 7B) Western blot analysis for IκB protein level in HaCaT cells at 6 h post UVB radiation in the presence or absence of carnosol. (FIG. 7C) Western blot analysis for IκB protein level in MEF cells at 6 h post UVB radiation in the presence or absence of carnosol. (FIG. 7D) Western blot for 5276 site phosphorylation of NF-κB in HaCaT cells at 6 h post UVB with indicated carnosol concentration. (FIG. 7E) EMSA assay for HaCaT cells at 2, 4, 6 h post UVB radiation in the presence or absence of carnosol (20 μM). (FIG. 7F) Statistical analysis of the EMSA assay using two to three sets of independent experiments. *p<0.05 versus control group, **p<0.05 versus UV group at indicated time point.
(§2) Cells were lysed with Nonidet P-40 (NP-40) lysis buffer (2% NP-40, 80 mM NaCl, 100 mM Tris-HCl pH 8.0, 0.1% SDS) with proteinase inhibitor mixture (Complete™, Roche Molecular Biochemicals) at indicated time point. […] Protein concentration was measured by Protein DC Assay kit (Bio-Rad Laboratories). […]

IκB = assay: Western blot for IκB protein level, MEF cells; format: cell-based, mouse; details: 20 μM carnosol, 6 h post UVB
Protocol: as §1, §2

HaCaT cells = assay: HaCaT transformation in soft agar after repeated UVB; format: cell-based, Human; details: 10 mJ/cm^2 UVB every 48 h for 14 days, soft agar 10 days; UVB alone about 3.5 fold
Protocol: FIG. 8: Carnosol decreases HaCaT transformation rate upon UVB radiation. HaCaT cells were exposed to 10 mJ/cm^2 UVB radiation every 48 h for 14 days. Cells were then collected and equal amount of cells were then re-seeded into 96 well plate with soft agar. After 10 days of incubation, cells were stained and dissolved and the fluorescent intensity was determined. *p<0.05 versus control group, **p<0.05 versus UV group.
HaCaT cells were exposed to 10 mJ/cm^2 UVB radiation every 48 h for 14 days. As only cancerous cells can survive in the soft-agar, by staining the survival cells with fluorescent dye, the cell transformation rate was determined.

ONOO^− in HaCaT cells = assay: Peroxynitrite measurement (DAR) after UVB radiation; format: cell-based, Human; details: 20 μM carnosol
Protocol: FIGS. 4A-4B: Quantitative analysis of NO* and ONOO^− after UVB radiation. HaCaT cells were irradiated with UVB radiation in the presence or absence of carnosol (20 μM). At indicated time point, cells were stained with DAF-2DA or DAR. The fluorescent intensity was then measured and normalized to cell viability. (FIG. 4A) Quantitative measurement of NO*. (FIG. 4B) Quantitative measurement of ONOO^−. *p<0.05 versus corresponded group with carnosol treatment upon UVB radiation.
The level of NO* was measured by 5 mM diaminofluorescein diacetate (DAF-2DA) (ex490/em520 nm) and ONOO^− was measured by 5 mM diaminorhodamine (DAR) (ex488/em515 nm). 1×10^5 HaCaT cells were seeded in 96-well plate one day before measurement. […] The cells were then incubated in dark for 2 h at room temperature and the fluorescence was measured by luminometer (Molecular devices Spectra Max M2). The reading was then normalized by AlamarBlue cell viability assay (Life technology). 10% of the Alamar Blue reagent was added to cells with medium followed by 2 h incubation at 37° C. in dark then read the fluorescent at ex570/em590 nm using luminometer (Molecular devices Spectra Max M2).
Both NO* and ONOO^− are induced by UVB radiation. By using DAF-2DA (5 mM) and DAR (5 mM), the effect of carnosol on intracellular NO* and ONOO^− level, in a time dependent manner upon UVB radiation, was also measured.

[2] = system: γH2AX (phosphorylated H2AX); assay: Western blot of DNA damage marker, MEF cells; format: cell-based, mouse; details: early stage post UVB 50 mJ/cm^2
Protocol: (§3) FIGS. 5A-5B: Carnosol protects UVB-induced DNA damage. (FIG. 5A) HaCaT cells and (FIG. 5B) MEF cells were exposed to 50 mJ/cm^2 UVB radiation in the presence or absence of carnosol. Cells were lysed at indicated time point and protein levels of phosphorylated H2AX and Chk were measured. The data represents three sets of independent experiments.
(§4) Cells were lysed with Nonidet P-40 (NP-40) lysis buffer (2% NP-40, 80 mM NaCl, 100 mM Tris-HCl pH 8.0, 0.1% SDS) with proteinase inhibitor mixture (Complete™, Roche Molecular Biochemicals) at indicated time point. Cell lysate was incubated on ice for 15 min and then centrifuged at 14,000 rpm at 4° C. for 15 min. Protein concentration was measured by Protein DC Assay kit (Bio-Rad Laboratories). Equal amounts of protein were subjected on SDS-PAGE and transferred to a nitrocellulose membrane. The membrane was then blocked in 5% milk in Tris buffered saline plus Tween 20 ® (TBST) for 45 min and probed with anti-yH2AX (Cell Signaling), anti-pCHK (Cell Signaling), anti-p276-NF-κB (Santa Cruz), anti-NF-κB p65 (Santa Cruz), anti-IκB (Santa Cruz), or anti-β-actin (Santa Cruz) at 4° C. overnight. After washing with TBST, the membrane was incubated with corresponding HRP-conjugated anti-rabbit or anti-mouse antibody for 45 min at room temperature. […]

phosphor-Chk = assay: Western blot of DNA damage marker, MEF cells; format: cell-based, mouse; details: early stage post UVB 50 mJ/cm^2
Protocol: as §3, §4

CC(C)c1cc2c(c(O)c1O)[C@@]13CCCC(C)(C)[C@@H]1C[C@@H]2OC3=O [carnosol]
6-4 PP formation after UVB radiation [1]: no significant reduction
phosphorylation of NF-κB at Serine 276 (S276) (NF-κB): reduces the phosphorylation
IκB protein level (IκB): partial recovery of IκB level
cell transformation (HaCaT cells): about 2.2 fold
reduction of ONOO^− level (ONOO^− in HaCaT cells; average from 2 h to 24 h post UVB): about 40%
ONOO^− level of cells without radiation (ONOO^− in HaCaT cells; no UVB): little effect
phosphorylation level of H2AX [2]: reduced
phosphorylation level of Chk (phosphor-Chk): reduced
